Reference: paper PMC6290023 (Scientific Reports, 2018)
Peptide text beside a SMILES is read from it.

Legend:
[1] = test system: mouse osteoclast precursor cells; experiment: Osteoclast differentiation of mouse osteoclast precursor cells (TRAP-positive large cells); type: cell-based; settings: M-CSF 50 ng/ml, 5 days
Description: Osteoclast differentiation was examined using a mouse osteoclast culture system obtained from Cosmo Bio Co. Ltd. (Tokyo, Japan). Mouse osteoclast precursor cells seeded in a 24-well plate were incubated with macrophage colony stimulating factor (50 ng/ml) and RANKL (50 ng/ml) with or without MHP1-AcN. After five days, osteoclast precursors stimulated with RANKL had fused with each other and became multinucleated TRAP-positive cells. Cells with more than ten nuclei were classified as large osteoclasts. The number of these cells in each group was counted with a phase contrast microscope (BZ-9000, Keyence, Tokyo) using BZII analyzer software (v1.42; Keyence, Tokyo).

LPS-stimulated MG6 cells = experiment: LDH assay in LPS-stimulated MG6 cells; type: cell-based, mouse
[2] = Dissolution in water and sedimentation in 0.45% saline at 37 °C for 24 h; type: physicochemical; settings: for sedimentation after incubation in 0.45% saline: 37 °C, 24 h, visual
Description: Synthetic MHP1 (NH2-[…]-COOH), MHP1-DN1 (NH2-LMVYVV-DLys-[…]-COOH), MHP1-DN2 (NH2-LMV-DTyr-[…]-COOH), MHP1-DN3 (NH2-L-DMet-[…]-COOH), MHP1-DC (NH2-LMVYVVKTSIKIPSSHNL-DMet-KGGSTKNWSGN-COOH), MHP1-Ac (Ac-[…]-COOH), MHP1-AcN (Ac-[…]-HN2), or MHP1-N (NH2-[…]-NH2) was purchased from ILS, Inc (Ibaraki, Tsukuba, Japan), dissolved in 1 or 2 mg/ml ddH2O and stored at 4 °C until use (Table 1).

tPA-induced hemorrhage = type: in vivo; settings: mouse tMCAo, MHP1-AcN 150 µg/mice combined with tPA 10 mg/kg after reperfusion at 6 h; 24 h after ischemia
Description: (§1) The ischemic damage was evaluated at 48 h after MCAo in sections stained with cresyl violet. Coronal sections (12 μm thickness) were made at −1.4, −0.7, 0, 0.7 and 1.4 mm from the bregma, mounted on the stereomicroscope and photographed. The volume of the infarct was calculated by the sum of each area of all sections corrected by cerebral edema and multiplied by the thickness of the slices. In the experiment of tPA-induced hemorrhage, PE10-catheter was placed in the right internal jugular vein at 6 h after ischemia. The nylon suture was then removed and 10% of the MHP-AcN mixture (150 µg/mice) and tPA (10 mg/kg) were injected followed by continuous injection of residual mixture of MHP1-AcN and tPA using a syringe pump (UNIVENTOR 400 ANAESTHESIA UNIT, ZTN, MALTA). In the experiment of FeCl3 -induced thrombosis model in CCA, a piece of filter paper soaked in 7.5% FeCl3 was placed on the right CCA for 1 min and it was rinsed with saline. Blood flow was recorded by using a laser speckle blood flow imager (OMEGAZONE OZ-2, OMEGAWAVE, INC., Tokyo, Japan). tPA (10 mg/kg) or mixture of MHP1-AcN (150 μg/mice) and tPA was started to be administered at 30 min after CCA occlusion.

[3] = Safety in normal mice (blood biochemistry); type: in vivo, mouse; settings: intravenous injection and continuous subcutaneous injection with Alzet pump, 24 h post-injection
[4] = test system: FeCl3-induced thrombosis model in CCA; experiment: FeCl3-induced thrombosis model in CCA, thrombolysis with tPA; type: in vivo; settings: mouse, MHP1-AcN 150 μg/mice combined with tPA 10 mg/kg, 30 min after CCA occlusion
Description: as §1

[5] = Pharmacokinetics after intravenous injection 4 h after tMCAo (LC/MS/MS); type: in vivo; settings: mouse, i.v. 2 mg/ml, 10 ml/kg in 0.45% saline
Description: MHP1-Ac or MHP1-AcN (2 mg/ml, 10 ml/kg in 0.45% saline) was administered intravenously 4 hrs after tMCAo and mouse plasma was collected at 5 min, 10 min, 20 min, 30 min, 45 min, 1 h, and 2 h after injection. Mouse plasma (C57BL6J, 10 µL) and water/phosphoric acid (24:1, v/v) (Solution B, 500 µL) were mixed together to prepare the plasma samples. The samples (510 µL) were then analyzed using LC/MS/MS to determine MHP1-Ac or MHP1-AcN in plasma. Mouse brain was weighed and mixed with a 4-fold volume of solution B and the mixture was homogenized to prepare the brain samples. The specific gravity of solution B was assumed to be 1. The brain samples (10 µL) were analyzed using LC/MS/MS to determine MHP1-Ac or MHP1-AcN in brain. MHP1-Ac and MHP1-AcN, and MHP1-N (internal standard), in the plasma samples and brain samples, were extracted using Oasis HLB μElution Plate (Waters). Chromatographic analysis was performed on an InertSustain C18 (2.1 mm I.D. ×50 mm, 3 µm, GL Sciences) column using the mobile phase A, water/formic acid (1000:1, v/v), and the mobile phase B, acetonitrile/formic acid (1000:1, v/v).

tMCAo model in mice = experiment: Transient middle cerebral artery occlusion (tMCAo) model; type: in vivo; settings: mouse tMCAo; for reduction of infarct volume: 150 μl i.v. 6 h after MCAo then s.c. Alzet pump 24 h; for neurological deficits (neurological severity score): start 6 h after MCAo
Description: The plan of animal studies was approved by the Animal Committee of Graduate School of Medicine, Osaka University (25-029-012), and all animal experiments were carried out in accordance with the guidelines of Osaka University. All surgeries were performed using isoflurane and all efforts were made to minimize suffering. The C57Bl6/J mice were obtained from CLEA Japan, Inc. The transient middle cerebral artery occlusion procedure was described previously (1). Briefly, the mice were anesthetized with isoflurane (1.4%). The cerebral blood flow (CBF) was measured using a laser Doppler flowmeter (Unique Acquisition software; Unique Medical, Osaka, Japan). A 6.0 monofilament surgical suture was advanced into the internal carotid artery to obstruct the origin of the middle cerebral artery. The filament was left in place for 40 min before withdrawal. For all the mice, the rectal temperature was maintained at 37.0 ± 0.5 °C during surgery and recovery period (until the animals regained consciousness). […] MHP1 (4 mg/ml in water) was diluted to 0.5, 1, or 2 mg/ml in 0.45% saline, and 150 μl of the MHP1 was injected intravenously at 6 or 8 h after the MCAo. MHP1 was subsequently injected subcutaneously for 24 hrs using Alzet mini-osmotic pump (2001D, DURECT Corporation, Cupertino, USA). The vehicle control for MHP1, 0.45% saline, was injected similarly.
as §1

CC[C@H](C)[C@H](NC(=O)[C@H](CO)NC(=O)[C@@H](NC(=O)[C@H](CCCCN)NC(=O)[C@@H](NC(=O)[C@@H](NC(=O)[C@H](Cc1ccc(O)cc1)NC(=O)[C@@H](NC(=O)[C@H](CCSC)NC(=O)[C@H](CC(C)C)NC(C)=O)C(C)C)C(C)C)C(C)C)[C@@H](C)O)C(=O)N[C@@H](CCCCN)C(=O)N[C@H](C(=O)N1CCC[C@H]1C(=O)N[C@@H](CO)C(=O)N[C@@H](CO)C(=O)N[C@@H](Cc1c[nH]cn1)C(=O)N[C@@H](CC(N)=O)C(=O)N[C@@H](CC(C)C)C(=O)N[C@@H](CCSC)C(=O)N[C@@H](CCCCN)C(=O)NCC(=O)NCC(=O)N[C@@H](CO)C(=O)N[C@H](C(=O)N[C@@H](CCCCN)C(=O)N[C@@H](CC(N)=O)C(=O)N[C@@H](Cc1c[nH]c2ccccc12)C(=O)N[C@@H](CO)C(=O)NCC(=O)N[C@@H](CC(N)=O)C(N)=O)[C@@H](C)O)[C@@H](C)CC [MHP1-AcN] (Ac-LMVYVVKTSIKIPSSHNLMKGGSTKNWSGN-NH2)
effect on RANKL-induced osteoclast differentiation ([1]; RANKL 50 ng/ml): inhibited RANKL-induced osteoclast differentiation
effect on osteoclast differentiation (peptide alone) ([1]; without RANKL): did not affect the osteoclast differentiation
cytotoxicity (LDH assay) (LPS-stimulated MG6 cells): did not increase cytotoxicity
sedimentation after incubation in 0.45% saline ([2]; 1 mg/ml): sedimentation was not observed
sedimentation after incubation in 0.45% saline ([2]; 2 mg/ml): sedimentation was not observed
dissolution in water ([2]; water): easily dissolved in water
effect on tPA-induced hemorrhagic formation (tPA-induced hemorrhage): reduced formation of hemorrhage
blood biochemistry [3]: no abnormalities
effect on time of recanalization by tPA [4]: did not affect the time of recanalization
level at 0.5 h ([5]; C57BL6J, iv, 20 mg/kg, plasma, 30 min, read-out: intact peptide in plasma 30 min post-injection): ~8000 ng/mL
time post-injection until which peptide was detected in the brain ([5]; brain homogenate, last sampling 2 h): 2 h
reduction of infarct volume (tMCAo model in mice; 0.5 mg/ml, infarct at 48 h): effective
neurological deficits (neurological severity score) (tMCAo model in mice; 0.5 mg/ml): significantly improved
reduction of infarct volume (tMCAo model in mice; 1 mg/ml, infarct at 48 h): the most effective dose
neurological deficits (neurological severity score) (tMCAo model in mice; 1 mg/ml): significantly improved
neurological deficit (tMCAo model in mice; 1 mg/ml, start 8 h after ischemia, at 48 h after ischemia): significantly improved
infarct volume compared to saline-treated mice (tMCAo model in mice; 1 mg/ml, start 8 h after ischemia, infarct at 48 h): tendency of reduction
reduction of infarct volume (tMCAo model in mice; 2 mg/ml, infarct at 48 h): effective
neurological deficits (neurological severity score) (tMCAo model in mice; 2 mg/ml): tendency of recovery
